Assay results taken from patent publication US7507860B2 (Pfizer Inc., priority 2004, dated 2009).
Changes are numbered by the printed parent chain. Where two headings read alike, the source gives them in different places.

Columns and labels:
[1] = target: T1, human androgen receptor (hAR) (Homo sapiens, UniProt P10275); assay: Competitive binding analysis on baculovirus/Sf9 generated hAR extracts with 3H-DHT tracer; conditions: hAR extract, 1 nM 3H-DHT, one hour at 4° C, mean of multiple tests
T1 construct: made in house; host or cells: baculovirus/Sf9 insect cells (crude extract)
T1 sequence (P10275 1-920): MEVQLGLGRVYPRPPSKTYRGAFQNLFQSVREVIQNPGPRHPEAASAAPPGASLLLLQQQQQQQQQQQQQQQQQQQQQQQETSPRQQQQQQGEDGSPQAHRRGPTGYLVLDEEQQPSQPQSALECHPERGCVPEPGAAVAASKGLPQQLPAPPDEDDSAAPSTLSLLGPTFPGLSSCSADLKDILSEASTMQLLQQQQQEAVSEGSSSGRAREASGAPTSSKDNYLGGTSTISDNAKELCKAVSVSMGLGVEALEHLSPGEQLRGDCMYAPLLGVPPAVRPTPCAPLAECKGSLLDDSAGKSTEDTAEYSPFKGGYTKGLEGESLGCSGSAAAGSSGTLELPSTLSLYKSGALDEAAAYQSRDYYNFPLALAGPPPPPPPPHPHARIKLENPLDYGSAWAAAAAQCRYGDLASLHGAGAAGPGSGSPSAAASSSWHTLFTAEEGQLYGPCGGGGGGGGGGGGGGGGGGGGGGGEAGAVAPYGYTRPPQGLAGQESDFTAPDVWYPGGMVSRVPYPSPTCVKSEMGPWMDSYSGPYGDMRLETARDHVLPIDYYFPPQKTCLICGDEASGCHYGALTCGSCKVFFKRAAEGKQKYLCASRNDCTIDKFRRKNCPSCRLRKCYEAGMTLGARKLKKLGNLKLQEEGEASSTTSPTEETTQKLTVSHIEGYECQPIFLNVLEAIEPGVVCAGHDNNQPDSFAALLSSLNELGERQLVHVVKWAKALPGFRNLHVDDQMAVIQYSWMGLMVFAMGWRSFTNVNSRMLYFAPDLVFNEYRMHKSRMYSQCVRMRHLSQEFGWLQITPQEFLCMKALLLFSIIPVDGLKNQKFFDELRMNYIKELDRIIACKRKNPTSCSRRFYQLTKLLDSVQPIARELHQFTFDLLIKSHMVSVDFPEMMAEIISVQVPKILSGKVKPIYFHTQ
Description: The compounds of Formula I have affinity for the androgen receptor. […] The description below describes how the assay was carried out.
Competitive binding analysis was performed on baculovirus/Sf9 generated hAR extracts in the presence or absence of different concentrations of test agent and a fixed concentration of ^3H-dihydrotestosterone (^3H-DHT) as tracer. This binding assay method is a modification of a protocol previously described (Liao S., et. al. J. Steroid Biochem. 20:11-17 1984). Briefly, progressively decreasing concentrations of compounds are incubated in the presence of hAR extract (Chang et al. P.N.A.S. Vol. 89, pp. […], 1992), hydroxylapatite, and 1 nM^3H-DHT for one hour at 4° C. Subsequently, the binding reactions are washed three times to completely remove excess unbound ^3H-DHT. hAR bound ^3H-DHT levels are determined in the presence of compounds (=i.e competitive binding) and compared to levels bound when no competitor is present (=i.e. maximum binding). Compound binding affinity to the hAR is expressed as the concentration of compound at which one half of the maximum binding is inhibited. Table II below provides the results that were obtained for selected compounds (reported data is the mean of multiple tests as shown below)

androgen receptor = target: T2, androgen receptor (Homo sapiens, UniProt P10275); assay: AR antagonist cell assay (MDA-MB453-MMTV clone 54-19 luciferase reporter, 100 pM DHT); assay type: cell-based; conditions: MDA-MB453-MMTV clone 54-19, inhibition of 100 pM DHT induction, 17 hr; mean of multiple tests; read-out: AR Cell IC50
T2 sequence (P10275 1-920 Q868H): T1 sequence (P10275 1-920) with Q868H
Description: The compounds ability to antagonize the effects of androgen on the androgen receptor were determined in a whole cell assay as described immediately below.
Experimental Procedure for AR Antagonist Cell Assay
This cell line is a stable transfected cell line with MDA-MB453 cell background (a human breast tumor cell line expressing androgen receptor). A MMTV minimal promoter containing ARE was first cloned in front of a firefly luciferase reporter gene. Then the cascade was cloned into transfection vector pUV120puro. […] Puromycin resistant stable cell line was selected. Cell Culture Media and Reagents:
Plating medium: DMEM (phenol red free), 10% charcoal treated HyClone serum, 1% L-glutamine
Assay medium: DMEM (phenol red free), 1% charcoal treated HyClone serum, 1% L-glutamine, and 1% penicillin/streptomycin
• 1. Cells are maintained in culture medium, splitting cells when they reach 80-90% confluence • 2. To test compounds, 10,000 cells/well are plated to opaque 96 cell culture plate in 100 ul/well plating medium, culture for overnight at 37° C. in cell culture incubator • 3. […] Add 10 ul/well freshly prepared DHT (final concentration at 100 pM) to each well, incubate at 37° C. for 17 hr (overnight) • 5.
The results are reported as the mean of multiple tests as described below (the numbers of tests are indicated in the footnote). N.D. denotes that the compound was not tested.

CC(C)CC(Oc1ccc(C#N)c(C(F)(F)F)c1)C(=O)NCc1ccc2c(c1)OCO2 (centres unmarked) [Example 24, 2-(4-Cyano-3-trifluoromethyl-phenoxy)-4-methyl-pentanoic acid (benzo[1,3]dioxol-5-yl-methyl)-amide]
IC50 ([1]; read-out: AR Binding IC50): 56 nM | IC50 (androgen receptor): 799 nM

CC(C)CC(Oc1ccc(C#N)c(C(F)(F)F)c1)C(=O)NCc1ccc2c(c1)CCO2 (centres unmarked) [Example 25, 2-(4-Cyano-3-trifluoromethyl-phenoxy)-4-methyl-pentanoic acid (2,3-dihydro-benzofuran-5-yl-methyl)-amide]
IC50 ([1]; read-out: AR Binding IC50): 67 nM | IC50 (androgen receptor): 798 nM

CC(C)CC(Oc1ccc(C#N)c(C(F)(F)F)c1)C(=O)NCc1ccc2nsnc2c1 (centres unmarked) [Example 26, 2-(4-Cyano-3-trifluoromethyl-phenoxy)-4-methyl-pentanoic acid (benzo[1,2,5]thiadiazol-5-yl-methyl)-amide]
IC50 ([1]; read-out: AR Binding IC50): 67 nM | IC50 (androgen receptor): > 1000 nM

CCCC(Oc1ccc(C#N)c(C(F)(F)F)c1)C(=O)NCc1ccc2c(c1)OCO2 (centres unmarked) [Example 29, 2-(4-Cyano-3-trifluoromethyl-phenoxy)-pentanoic acid (benzo[1,3]dioxol-5-yl-methyl)-amide]
IC50 ([1]; read-out: AR Binding IC50): 180 nM | IC50 (androgen receptor): > 1000 nM

CCCC(Oc1ccc(C#N)c(C(F)(F)F)c1)C(=O)NCc1ccc2c(c1)CCO2 (centres unmarked) [Example 30, 2-(4-Cyano-3-trifluoromethyl-phenoxy)-pentanoic acid (2,3-dihydro-benzofuran-5-yl-methyl)-amide]
IC50 ([1]; read-out: AR Binding IC50): 134 nM | IC50 (androgen receptor): 355 nM

CCCC(Oc1ccc(C#N)c(C(F)(F)F)c1)C(=O)NCc1ccc2nsnc2c1 (centres unmarked) [Example 31, 2-(4-Cyano-3-trifluoromethyl-phenoxy)-pentanoic acid (benzo[1,2,5]thiadiazo-5-yl-methyl)-amide]
IC50 ([1]; read-out: AR Binding IC50): 83 nM | IC50 (androgen receptor): > 1000 nM

COc1cccc(CNC(=O)C(CC(C)C)Oc2ccc(C#N)c(C(F)(F)F)c2)c1 (centres unmarked) [Example 33, 2-(4-Cyano-3-trifluoromethyl-phenoxy)-4-methyl-pentanoic acid-3-methoxy-benzylamide]
IC50 ([1]; read-out: AR Binding IC50): 62 nM | IC50 (androgen receptor): 864 nM

COc1ccc(CCNC(=O)C(CC(C)C)Oc2ccc(C#N)c(C(F)(F)F)c2)cc1 (centres unmarked) [Example 34, 2-(4-Cyano-3-trifluoromethyl-phenoxy)-4-methyl-pentanoic acid [2-(4-methoxyphenyl)-ethyl]amide]
IC50 ([1]; read-out: AR Binding IC50): 68 nM | IC50 (androgen receptor): > 1000 nM

COc1ccccc1CNC(=O)C(CC(C)C)Oc1ccc(C#N)c(C(F)(F)F)c1 (centres unmarked) [Example 35, 2-(4-Cyano-3-trifluoromethyl-phenoxy)-4-methyl-pentanoic acid-2-methoxy-benzylamide]
IC50 ([1]; read-out: AR Binding IC50): 77 nM | IC50 (androgen receptor): 768 nM

CCOc1ccccc1CNC(=O)C(CC(C)C)Oc1ccc(C#N)c(C(F)(F)F)c1 (centres unmarked) [Example 36, 2-(4-Cyano-3-trifluoromethyl-phenoxy)-4-methyl-pentanoic acid-2-ethoxy-benzylamide]
IC50 ([1]; read-out: AR Binding IC50): 42 nM | IC50 (androgen receptor): > 1000 nM

Cc1cccc(CNC(=O)C(CC(C)C)Oc2ccc(C#N)c(C(F)(F)F)c2)c1 (centres unmarked) [Example 37, 2-(4-Cyano-3-trifluoromethyl-phenoxy)-4-methyl-pentanoic acid-3-methyl-benzylamide]
IC50 ([1]; read-out: AR Binding IC50): 41 nM | IC50 (androgen receptor): > 1000 nM

Cc1ccccc1CNC(=O)C(CC(C)C)Oc1ccc(C#N)c(C(F)(F)F)c1 (centres unmarked) [Example 38, 2-(4-Cyano-3-trifluoromethyl-phenoxy)-4-methyl-pentanoic acid-2-methyl-benzylamide]
IC50 ([1]; read-out: AR Binding IC50): 15 nM | IC50 (androgen receptor): > 1000 nM

COc1ccc(CNC(=O)C(CC(C)C)Oc2ccc(C#N)c(C(F)(F)F)c2)cc1 (centres unmarked) [Example 39, 2-(4-Cyano-3-trifluoromethyl-phenoxy)-4-methyl-pentanoic acid-4-methoxy-benzylamide]
IC50 ([1]; read-out: AR Binding IC50): 42 nM | IC50 (androgen receptor): > 1000 nM

CCCC(Oc1ccc(C#N)c(C(F)(F)F)c1)C(=O)NCc1ccccc1OC (centres unmarked) [Example 41, 2-(4-Cyano-3-trifluoromethyl-phenoxy)-pentanoic acid-2-methoxy-benzylamide]
IC50 ([1]; read-out: AR Binding IC50): 171 nM | IC50 (androgen receptor): 130 nM

CCCC(Oc1ccc(C#N)c(C(F)(F)F)c1)C(=O)NCc1ccccc1OCC (centres unmarked) [Example 42, 2-(4-Cyano-3-trifluoromethyl-phenoxy)-pentanoic acid-2-ethoxy-benzylamide]
IC50 ([1]; read-out: AR Binding IC50): 139 nM | IC50 (androgen receptor): > 1000 nM

CCCC(Oc1ccc(C#N)c(C(F)(F)F)c1)C(=O)NCc1cccc(C)c1 (centres unmarked) [Example 43, 2-(4-Cyano-3-trifluoromethyl-phenoxy)-pentanoic acid-3-methyl-benzylamide]
IC50 ([1]; read-out: AR Binding IC50): 99 nM | IC50 (androgen receptor): 105 nM

CCCC(Oc1ccc(C#N)c(C(F)(F)F)c1)C(=O)NCc1ccccc1C (centres unmarked) [Example 44, 2-(4-Cyano-3-trifluoromethyl-phenoxy)-pentanoic acid-2-methyl-benzylamide]
IC50 ([1]; AR Binding IC50 (nM)): 42 nM | IC50 (androgen receptor): 37 nM

CCCC(Oc1ccc(C#N)c(C(F)(F)F)c1)C(=O)NCc1ccc(C)cc1C (centres unmarked) [Example 45, 2-(4-Cyano-3-trifluoromethyl-phenoxy)-pentanoic acid-2,4-dimethyl-benzylamide]
IC50 ([1]; read-out: AR Binding IC50): 58 nM | IC50 (androgen receptor): > 1000 nM

CCCC(Oc1ccc(C#N)c(C(F)(F)F)c1)C(=O)NCc1ccc(OC)cc1 (centres unmarked) [Example 46, 2-(4-Cyano-3-trifluoromethyl-phenoxy)-pentanoic acid-4-methoxy-benzylamide]
IC50 ([1]; read-out: AR Binding IC50): 103 nM | IC50 (androgen receptor): 638 nM
